Target: T1, Cav3.2 T-type calcium channel (Homo sapiens, UniProt O95180)
T1 construct: gene CACNA1H
Test: whole-cell patch clamp, tsA-201 cells transiently expressing Cav3.[…]; partial block (plateau about […])
Format: cell-based

T1 sequence (O95180 whole entry): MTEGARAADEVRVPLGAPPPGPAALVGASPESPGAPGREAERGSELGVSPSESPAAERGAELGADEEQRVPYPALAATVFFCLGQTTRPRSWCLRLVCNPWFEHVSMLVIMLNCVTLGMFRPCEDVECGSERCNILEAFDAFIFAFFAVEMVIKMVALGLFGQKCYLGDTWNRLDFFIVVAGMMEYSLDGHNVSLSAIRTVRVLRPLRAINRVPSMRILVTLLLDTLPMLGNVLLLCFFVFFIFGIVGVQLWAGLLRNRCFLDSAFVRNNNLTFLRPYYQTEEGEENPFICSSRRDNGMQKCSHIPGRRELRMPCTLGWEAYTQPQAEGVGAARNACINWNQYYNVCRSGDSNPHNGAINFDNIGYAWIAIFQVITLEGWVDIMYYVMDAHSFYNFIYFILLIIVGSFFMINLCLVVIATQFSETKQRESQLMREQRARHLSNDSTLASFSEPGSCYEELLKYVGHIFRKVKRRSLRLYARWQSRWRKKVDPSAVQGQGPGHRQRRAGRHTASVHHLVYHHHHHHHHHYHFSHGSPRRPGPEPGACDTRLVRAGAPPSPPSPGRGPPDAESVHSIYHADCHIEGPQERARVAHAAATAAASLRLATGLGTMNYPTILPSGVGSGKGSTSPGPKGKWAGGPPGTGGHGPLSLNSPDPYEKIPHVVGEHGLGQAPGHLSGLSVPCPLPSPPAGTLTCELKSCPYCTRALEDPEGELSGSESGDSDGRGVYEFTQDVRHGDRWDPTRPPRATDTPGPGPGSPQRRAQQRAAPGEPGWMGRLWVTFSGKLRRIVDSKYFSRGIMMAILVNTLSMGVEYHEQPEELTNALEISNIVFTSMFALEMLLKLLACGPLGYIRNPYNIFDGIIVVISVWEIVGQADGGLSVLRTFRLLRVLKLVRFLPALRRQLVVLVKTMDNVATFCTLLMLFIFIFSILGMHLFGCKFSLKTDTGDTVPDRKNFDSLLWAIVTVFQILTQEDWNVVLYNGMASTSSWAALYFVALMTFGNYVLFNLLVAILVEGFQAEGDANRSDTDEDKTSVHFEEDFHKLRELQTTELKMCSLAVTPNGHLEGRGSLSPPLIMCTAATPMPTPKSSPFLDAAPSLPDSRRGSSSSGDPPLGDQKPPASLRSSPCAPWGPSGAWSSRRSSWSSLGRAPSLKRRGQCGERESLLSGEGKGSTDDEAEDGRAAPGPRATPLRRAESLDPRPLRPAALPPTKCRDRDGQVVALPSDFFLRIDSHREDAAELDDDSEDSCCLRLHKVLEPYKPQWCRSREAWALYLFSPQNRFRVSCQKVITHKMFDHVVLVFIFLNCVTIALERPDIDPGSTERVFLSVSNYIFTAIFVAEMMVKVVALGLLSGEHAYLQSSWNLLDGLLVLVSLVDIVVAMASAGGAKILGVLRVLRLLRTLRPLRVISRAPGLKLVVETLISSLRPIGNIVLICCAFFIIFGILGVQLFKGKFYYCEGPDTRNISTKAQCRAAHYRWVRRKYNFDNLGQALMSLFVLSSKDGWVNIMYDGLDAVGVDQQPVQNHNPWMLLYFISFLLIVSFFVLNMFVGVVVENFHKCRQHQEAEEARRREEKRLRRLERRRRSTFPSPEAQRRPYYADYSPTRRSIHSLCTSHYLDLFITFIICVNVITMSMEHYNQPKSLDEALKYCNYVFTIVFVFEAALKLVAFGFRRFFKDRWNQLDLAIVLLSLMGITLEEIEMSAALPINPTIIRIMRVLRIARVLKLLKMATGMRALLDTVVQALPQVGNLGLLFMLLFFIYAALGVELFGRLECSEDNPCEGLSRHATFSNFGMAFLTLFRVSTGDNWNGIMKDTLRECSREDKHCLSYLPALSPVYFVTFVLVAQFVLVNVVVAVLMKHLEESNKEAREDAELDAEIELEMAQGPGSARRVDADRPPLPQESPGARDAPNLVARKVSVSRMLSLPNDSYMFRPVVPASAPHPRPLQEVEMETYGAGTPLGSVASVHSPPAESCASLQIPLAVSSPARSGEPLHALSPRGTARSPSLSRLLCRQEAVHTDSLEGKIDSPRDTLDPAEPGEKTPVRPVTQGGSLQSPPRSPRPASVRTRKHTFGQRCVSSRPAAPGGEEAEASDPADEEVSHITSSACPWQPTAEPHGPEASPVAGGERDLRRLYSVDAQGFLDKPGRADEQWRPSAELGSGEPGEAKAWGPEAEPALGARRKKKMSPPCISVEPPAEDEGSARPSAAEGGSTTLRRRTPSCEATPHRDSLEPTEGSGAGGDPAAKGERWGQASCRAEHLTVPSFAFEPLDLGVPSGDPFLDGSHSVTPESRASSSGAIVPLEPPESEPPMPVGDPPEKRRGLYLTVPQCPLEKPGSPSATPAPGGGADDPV

| IC50 [µM] | Compound |
| --- | --- |
| 4.5 ± 1.1 | CC(C)=CCC[C@](C)(O)[C@@H]1CC=C(C)CC1 [alpha-bisabolol] |
| 7.7 ± 1.8 | C=C1C2CCC(C2)C1(C)C (centres unmarked) [camphene] |
